Patent US10253007B2, “Taxanes compounds, preparation method therefor, and uses thereof” (Jiangsu Tasly Diyi Pharmaceutical Co., Ltd., priority 2013, dated 2019)
Like-named read-outs stand apart in the source and are kept apart here.

Experiments:
[1] = test system: breast cancer cell line MCF-7; test: IC50 values on breast cancer cell line MCF-7; format: cell-based; conditions: Homo sapiens, MCF7, 72 h
Source text: From the activity evaluation data of the above-mentioned preliminary screen, it can be seen that the series of taxanes derivatives synthesized in the present invention have activity (although the activity of PCMI-43 is weakened). Afterward, most of the compounds are picked up from these derivatives to examine their IC50 values on breast cancer cell line MCF-7. Paclitaxel is used as the positive control drug. Experiments for each compound were independently repeated for three times and multiple holes were used in each experiment. The exposure time of drugs was 72 hours.

K562 leukemia = test: MTT assay, proliferation inhibition; format: cell-based; conditions: Homo sapiens, read-out: Proliferation inhibition rate
Source text: (§1) 1. Cytotoxicity Assay Using Human Tumor Cell Lines
(§2) Paclitaxel was used as the positive drug.

A2780 ovarian cancer = test: MTT assay, proliferation inhibition; format: cell-based; conditions: Homo sapiens, read-out: Proliferation inhibition rate
Source text: as §1, §2

MCF-7 breast cancer = test: MTT assay, proliferation inhibition; format: cell-based; conditions: Homo sapiens, MCF7, read-out: Proliferation inhibition rate
Source text: as §1, §2

LNCaP prostate cancer = test: MTT assay, proliferation inhibition; format: cell-based; conditions: Homo sapiens, read-out: Proliferation inhibition rate
Source text: as §1, §2

DU145 prostate cancer = test: MTT assay, proliferation inhibition; format: cell-based; conditions: Homo sapiens, DU-145, read-out: Proliferation inhibition rate
Source text: as §1, §2

HCT 116 colon cancer = test: MTT assay, proliferation inhibition; format: cell-based; conditions: Homo sapiens, read-out: Proliferation inhibition rate
Source text: as §1, §2

HT29 colon cancer = test: MTT assay, proliferation inhibition; format: cell-based; conditions: Homo sapiens, HT-29, read-out: Proliferation inhibition rate
Source text: as §1, §2

[2] = test system: NCI-H460 non-small cell lung cancer; test: MTT assay, proliferation inhibition; format: cell-based; conditions: Homo sapiens, read-out: Proliferation inhibition rate
Source text: as §1, §2

B16 melanoma = test: MTT assay, proliferation inhibition; format: cell-based; conditions: read-out: Proliferation inhibition rate
Source text: as §1, §2

[3] = MTT assay, proliferation inhibition; format: cell-based; conditions: Homo sapiens, LN-18 gastric cancer, read-out: Proliferation inhibition rate
Source text: as §1, §2

[4] = test system: A549 non-small cell lung cancer; test: MTT assay, proliferation inhibition; format: cell-based; conditions: Homo sapiens, read-out: Proliferation inhibition rate
Source text: as §1, §2

HL60 leukemia = test: MTT assay, proliferation inhibition; format: cell-based; conditions: Homo sapiens, HL-60, read-out: Proliferation inhibition rate
Source text: as §1, §2

MDA-MB-436 breast cancer = test: MTT assay, proliferation inhibition; format: cell-based; conditions: Homo sapiens, read-out: Proliferation inhibition rate
Source text: as §1, §2

BGC-823 gastric cancer = test: MTT assay, proliferation inhibition; format: cell-based; conditions: Homo sapiens, read-out: Proliferation inhibition rate
Source text: as §1, §2

HeLa cervical cancer = test: MTT assay, proliferation inhibition; format: cell-based; conditions: Homo sapiens, read-out: Proliferation inhibition rate
Source text: as §1, §2

A375 melanoma = test: MTT assay, proliferation inhibition; format: cell-based; conditions: Homo sapiens, A-375, read-out: Proliferation inhibition rate
Source text: as §1, §2

Caco-2 cell monolayer [5] = test: Caco-2 cell monolayer membrane transport assay
Source text: (§3) Caco-2 Cell Monolayer Membrane Transport Assay
(§4) Human-derived colorectal adenocarcinoma cell line Caco-2 cell monolayer model was used to study the bidirectional transport of the target compounds from the apical (AP) side to the basolateral (BL) side and from BL side to AP side. HPLC was used for quantitative analysis to calculate transport parameters, apparent permeability coefficient (Papp) and the efflux ratio.

[6] = Caco-2 cell monolayer membrane transport assay; conditions: human; for recovery: Caco-2, Recovery rate in mass
Source text: as §3, §4

16 cancer cell lines = test: Preliminary cytotoxicity evaluation on 16 cancer cell lines (MTT); format: cell-based, human; conditions: preliminary screen at 1 μM, compared with paclitaxel
Source text: as §1, §2
In both cancer cell lines of A549 and B16, the cytotoxicity of the taxanes derivatives is slightly lower than that of the positive control drug.

in vitro = conditions: human, Caco-2, Papp A-B, Mean
Source text: as §3, §4

[7] = reported value for paclitaxel; cited from earlier work
Caco-2 cell monolayer [8] = conditions: human
Source text: as §3, §4

[9] = Caco-2, Papp A-B, Caco-2 cell line (21 days), bidirectional transport, Table 5
[10] = Caco-2, Papp A-B, Mean, Caco-2, A-B, mean of two samples
[11] = Caco-2, Papp A-B, Sample-01, Caco-2, A-B, Sample-01
[12] = Caco-2, Papp A-B, Sample-02, Caco-2, A-B, Sample-02
[13] = Mean, Caco-2, A-B, mean of two samples
[14] = Sample-01, Caco-2, A-B, Sample-01
[15] = Sample-02, Caco-2, A-B, Sample-02
[16] = Caco-2 cell line (21 days), bidirectional transport, Table 5

Row | Structure (SMILES) | inhibition at 1 µM (K562 leukemia) [%] | inhibition at 1 µM (A2780 ovarian cancer) [%] | inhibition at 1 µM (MCF-7 breast cancer) [%] | inhibition at 1 µM (LNCaP prostate cancer) [%] | inhibition at 1 µM (DU145 prostate cancer) [%] | inhibition at 1 µM (HCT 116 colon cancer) [%] | inhibition at 1 µM (HT29 colon cancer) [%] | inhibition at 1 µM [2] [%] | inhibition at 1 µM (B16 melanoma) [%] | inhibition at 1 µM [3] [%] | inhibition at 1 µM [4] [%] | inhibition at 1 µM (HL60 leukemia) [%] | inhibition at 1 µM (MDA-MB-436 breast cancer) [%] | inhibition at 1 µM (BGC-823 gastric cancer) [%] | inhibition at 1 µM (HeLa cervical cancer) [%] | inhibition at 1 µM (A375 melanoma) [%] | Papp A→B [6, 11] [×10⁻⁶ cm/s] | Papp A→B [6, 12] [×10⁻⁶ cm/s] | recovery [6, 13] [%] | recovery [6, 14] [%] | other results
1 | CO[C@H]1C(=O)[C@]2(C)[C@@H](OC(=O)N(C)C)C[C@H]3OC[C@@]3(OC(C)=O)[C@H]2[C@H](OC(=O)c2ccccc2)[C@]2(O)C[C@H](OC(=O)[C@H](O)[C@H](CC(C)C)NC(=O)OC(C)(C)C)C(C)=C1C2(C)C [PCMI-34] | 92.9 | 95 | 101 | 88.7 | 86.9 | 60.1 | 89.2 | 86.2 | 81.4 | 90.6 | 73.5 | 98.1 | 81.2 | 94.7 | 102 | 104 | 11.8 | 9.54 | 67.4 | 71.2 | IC50 ([1]; read-out: MCF-7(IC50, nM)): 13.26 ± 0.12 nM; membrane permeability (in words) (Caco-2 cell monolayer [5]; Caco-2 monolayer): highly permeable substrates; Papp B→A ([6]; Caco-2): 30.9 ×10⁻⁶ cm/s; efflux ratio ([6]; Caco-2): 1.59; Papp A→B [6, 9]: 19.4 ×10⁻⁶ cm/s; Papp A→B [6, 10]: 10.7 ×10⁻⁶ cm/s; Papp A→B ([6]; Caco-2, Papp A-to-B, Caco-2): > 10 ×10⁻⁶ cm/s; recovery [6, 15]: 63.6%
2 | COC(=O)O[C@H]1C[C@H]2OC[C@@]2(OC(C)=O)[C@H]2[C@H](OC(=O)c3ccccc3)[C@]3(O)C[C@H](OC(=O)[C@H](O)[C@H](CC(C)C)NC(=O)OC(C)(C)C)C(C)=C([C@@H](OC)C(=O)[C@]12C)C3(C)C [PCMI-39] | 92.2 | 94.9 | 100 | 82.8 | 84.9 | 57.1 | 88.4 | 81.6 | 72.3 | 94.1 | 67.4 | 99.1 | 78.4 | 91.7 | 100 | 90.2 | 6.13 | 8.81 | 64.2 | 71.7 | IC50 ([1]; read-out: MCF-7(IC50, nM)): 2.81 ± 0.02 nM; Papp A-B (Caco-2 cell monolayer [5]; [16]): 7.16 10^−6 cm/s; Papp B-A (Caco-2 cell monolayer [5]; [16]): 36.37 10^−6 cm/s; Papp A→B [6, 10]: 7.47 ×10⁻⁶ cm/s; recovery [6, 15]: 56.7%
3 | CO[C@H]1C(=O)[C@]2(C)CC[C@H]3OC[C@@]3(OC(C)=O)[C@H]2[C@H](OC(=O)c2ccccc2)[C@]2(O)C[C@H](OC(=O)[C@H](O)[C@H](CC(C)C)NC(=O)OC(C)(C)C)C(C)=C1C2(C)C [PCMI-42] | 94.3 | 95.6 | 97.8 | 82.9 | 87 | 66.1 | 88.2 | 84.3 | 78.3 | 94.8 | 77.6 | 97.6 | 79.5 | 92.8 | 99.3 | 104 | 7.85 | 6.49 | 74.2 | 81 | IC50 ([1]; read-out: MCF-7(IC50, nM)): 3.06 ± 0.08 nM; efflux ratio (Caco-2 cell monolayer [5]; Caco-2 cell line (21 days), Papp B-A/Papp A-B): 5.12; Papp B-A (Caco-2 cell monolayer [5]; [16]): 38.57 10^−6 cm/s; Papp A→B [6, 9]: 7.54 ×10⁻⁶ cm/s; recovery [6, 15]: 67.3%
4 | CO[C@H]1C(=O)[C@]2(C)C=C[C@@H](O)[C@](CO)(OC(C)=O)[C@H]2[C@H](OC(=O)c2ccccc2)[C@]2(O)C[C@H](OC(=O)[C@H](O)[C@@H](NC(=O)c3ccccc3)c3ccccc3)C(C)=C1C2(C)C [PCMI-43] | 80.9 | 70 | 68.3 | 61.2 | 63.4 | 46.1 | 36.4 | 62.1 | 13.3 | 73.2 | 53.9 | 76.3 | 35.7 | 38.2 | 52 | 77.8 | 3.21 | 2.89 | 72 | 76.6 | cytotoxicity (in words) (16 cancer cell lines): weakened; Papp A→B [6, 10]: 3.05 ×10⁻⁶ cm/s; recovery [6, 15]: 67.5%
5 | CO[C@H]1C(=O)[C@]2(C)C=C[C@@H](O)[C@](CO)(OC(C)=O)[C@H]2[C@H](OC(=O)c2ccccc2)[C@]2(O)C[C@H](OC(=O)[C@H](O)[C@@H](NC(=O)OC(C)(C)C)c3ccccc3)C(C)=C1C2(C)C [PCMI-44] | 94.4 | 95.6 | 95.2 | 86.9 | 89.2 | 67.1 | 88.3 | 85.2 | 75.3 | 89.8 | 75.9 | 96.3 | 82.7 | 90.8 | 99.3 | 93.9 | 5.28 | 6.39 | 95.8 | 85.7 | IC50 ([1]; read-out: MCF-7(IC50, nM)): 10.9 ± 0.16 nM; cytotoxicity (in words) (16 cancer cell lines): remains good cytotoxicity; Papp B→A ([6]; Caco-2): 27.2 ×10⁻⁶ cm/s; efflux ratio ([6]; Caco-2): 4.76; Papp A→B [6, 9]: 5.72 ×10⁻⁶ cm/s; Papp A→B [6, 10]: 5.83 ×10⁻⁶ cm/s; recovery [6, 15]: 106%
6 | CC(=O)O[C@H]1C(=O)[C@@]2(C)[C@H]([C@H](OC(=O)c3ccccc3)[C@]3(O)C[C@H](OC(=O)[C@H](O)[C@@H](NC(=O)c4ccccc4)c4ccccc4)C(C)=C1C3(C)C)[C@]1(OC(C)=O)CO[C@@H]1C[C@@H]2O [Paclitaxel, reference compound] | 96.6 | 96.7 | 94.2 | 87.1 | 90.6 | 70.4 | 88.4 | 87.5 | 84 | 94.5 | 81.6 | 96.8 | 83.1 | 92.5 | 101 | 96.2 | – | – | – | – | IC50 ([1]; MCF-7, exposure 72 hours, mean±SD of three independent experiments, read-out: MCF-7(IC50)): ~7.05 nM; Papp A→B (in vitro): 0.97 ×10⁻⁶ cm/s; reported absolute oral bioavailability [7]: less than 5%; Papp A-B (Caco-2 cell monolayer [8]): 0.97 10^−6 cm/s; Papp B-A (Caco-2 cell monolayer [8]): 33.39 10^−6 cm/s; efflux ratio (Caco-2 cell monolayer [8]): 34.38
